{"source": "patent US20240158348A1", "about": "“HERBICIDAL CYCLIC AMIDES N-SUBSTITUTED WITH A HALOALKYLSULFONYLANILIDE GROUP” (FMC Corporation, priority 2021, published 2024)", "assay_type_in_all_cases": "in vivo", "key": {"[1]": {"tested_on": "oat, wild (wild oat, Avena fatua)", "assay": "Test C postemergence, wild oat", "conditions": "visual injury, 0 to 100 scale (0 no effect, 100 complete control)", "description": "(§1) Seeds of plant species selected from blackgrass (Alopecurus myosuroides), corn (Zea mays), foxtail, giant (giant foxtail, Setaria faberi), goosegrass (Eleusine indica), kochia (Bassia scoparia), oat, wild (wild oat, Avena fatua), pigweed, palmer (palmer amaranth, Amaranthus palmeri), ragweed (common ragweed, Ambrosia artemisiifolia), ryegrass, Italian (Italian ryegrass, Lolium multiflorum), soybean (Glycine max) and wheat (Triticum aestivum) were planted into a blend of loam soil and sand and treated preemergence with a directed soil spray using test chemicals formulated in a non-phytotoxic solvent mixture which included a surfactant.\n(§2) At the same time, plants selected from these crop and weed species and also galium (catchweed bedstraw, Galium aparine) and horseweed (Erigeron canadensis) were planted in pots containing the same blend of loam soil and sand and treated with postemergence applications of test chemicals formulated in the same manner. Plants ranged in height from 2 to 10 cm and were in the one- to two-leaf stage for the postemergence treatment. Treated plants and untreated controls were maintained in a greenhouse for 10 or 12 days, after which time all treated plants were compared to untreated controls and visually evaluated for injury. Plant response ratings, summarized in Table A, are based on a 0 to 100 scale where 0 is no effect and 100 is complete control. A dash (-) response means no test result."}, "[2]": {"tested_on": "pigweed, palmer (palmer amaranth, Amaranthus palmeri)", "assay": "Test C preemergence, palmer amaranth", "conditions": "0 is no effect, 100 is complete control", "description": "as §1, §2"}, "[3]": {"tested_on": "goosegrass (Eleusine indica)", "assay": "Test C postemergence, goosegrass", "conditions": "visual injury, 0 to 100 scale (0 no effect, 100 complete control)", "description": "as §1, §2"}, "[4]": {"tested_on": "corn (Zea mays)", "assay": "Test C preemergence, corn", "conditions": "0 is no effect, 100 is complete control", "description": "as §1, §2"}, "[5]": {"tested_on": "wheat (Triticum aestivum)", "assay": "Test C postemergence, wheat", "conditions": "visual injury, 0 to 100 scale (0 no effect, 100 complete control)", "description": "as §1, §2"}, "[6]": {"tested_on": "kochia (Bassia scoparia)", "assay": "Test C postemergence, kochia", "conditions": "visual injury, 0 to 100 scale (0 no effect, 100 complete control)", "description": "as §1, §2"}, "[7]": {"tested_on": "foxtail, giant (giant foxtail, Setaria faberi)", "assay": "Test C postemergence, giant foxtail", "conditions": "visual injury, 0 to 100 scale (0 no effect, 100 complete control)", "description": "as §1, §2"}, "[8]": {"tested_on": "horseweed (Erigeron canadensis)", "assay": "Test C postemergence, horseweed", "conditions": "visual injury, 0 to 100 scale (0 no effect, 100 complete control)", "description": "as §1, §2"}, "[9]": {"tested_on": "soybean (Glycine max)", "assay": "Test C preemergence, soybean", "conditions": "0 is no effect, 100 is complete control", "description": "as §1, §2"}, "[10]": {"tested_on": "sedge, umbrella (small-flower umbrella sedge, Cyperus difformis)", "assay": "Test D flooded paddy test, umbrella sedge", "set-up": "key: 0 = no effect, 100 = complete control", "conditions": "250 g ai/ha, Flood; applied to paddy water at 2-leaf stage; visual rating after 13 days; scale 0 (no effect) to 100 (complete control)", "procedure": "(§3) Plant species in the flooded paddy test selected from barnyardgrass (Echinochloa crusgalli), ducksalad (Heteranthera limosa), rice (Oryza sativa), and sedge, umbrella (small-flower umbrella sedge, Cyperus difformis) were grown to the 2-leaf stage for testing. At time of treatment, test pots were flooded to 3 cm above the soil surface, treated by application of test compounds directly to the paddy water, and then maintained at that water depth for the duration of the test. Treated plants and controls were maintained in a greenhouse for 13 days, after which time all species were compared to controls and visually evaluated. Plant response ratings, summarized in Table B, are based on a scale of 0 to 100 where 0 is no effect and 100 is complete control. A dash (-) response means no test result."}, "[11]": {"tested_on": "ducksalad (Heteranthera limosa)", "assay": "Test D flooded paddy test, ducksalad", "set-up": "key: 0 = no effect, 100 = complete control", "conditions": "250 g ai/ha, Flood; applied to paddy water at 2-leaf stage; visual rating after 13 days; scale 0 (no effect) to 100 (complete control)", "procedure": "as §3"}, "[12]": {"tested_on": "ryegrass, Italian (Italian ryegrass, Lolium multiflorum)", "assay": "Test C postemergence, Italian ryegrass", "conditions": "visual injury, 0 to 100 scale (0 no effect, 100 complete control)", "description": "as §1, §2"}, "[13]": {"tested_on": "barnyardgrass (Echinochloa crusgalli)", "assay": "Test D flooded paddy test, barnyardgrass", "set-up": "key: 0 = no effect, 100 = complete control", "conditions": "250 g ai/ha, Flood; applied to paddy water at 2-leaf stage; visual rating after 13 days; scale 0 (no effect) to 100 (complete control)", "procedure": "as §3"}, "[14]": {"tested_on": "pigweed, palmer (palmer amaranth, Amaranthus palmeri)", "assay": "Test C postemergence, palmer amaranth", "conditions": "visual injury, 0 to 100 scale (0 no effect, 100 complete control)", "description": "as §1, §2"}, "[15]": {"tested_on": "goosegrass (Eleusine indica)", "assay": "Test C preemergence, goosegrass", "conditions": "0 is no effect, 100 is complete control", "description": "as §1, §2"}, "[16]": {"tested_on": "ragweed (common ragweed, Ambrosia artemisiifolia)", "assay": "Test C postemergence, ragweed", "conditions": "visual injury, 0 to 100 scale (0 no effect, 100 complete control)", "description": "as §1, §2"}, "[17]": {"tested_on": "oat, wild (wild oat, Avena fatua)", "assay": "Test C preemergence, wild oat", "conditions": "0 is no effect, 100 is complete control", "description": "as §1, §2"}, "[18]": {"tested_on": "wheat (Triticum aestivum)", "assay": "Test C preemergence, wheat", "conditions": "0 is no effect, 100 is complete control", "description": "as §1, §2"}, "[19]": {"tested_on": "soybean (Glycine max)", "assay": "Test C postemergence, soybean", "conditions": "visual injury, 0 to 100 scale (0 no effect, 100 complete control)", "description": "as §1, §2"}, "[20]": {"tested_on": "foxtail, giant (giant foxtail, Setaria faberi)", "assay": "Test C preemergence, giant foxtail", "conditions": "0 is no effect, 100 is complete control", "description": "as §1, §2"}, "[21]": {"tested_on": "ragweed (common ragweed, Ambrosia artemisiifolia)", "assay": "Test C preemergence, ragweed", "conditions": "125 g ai/ha Preemergence; 0 is no effect, 100 is complete control", "description": "as §1, §2"}, "[22]": {"tested_on": "kochia (Bassia scoparia)", "assay": "Test C preemergence, kochia", "conditions": "0 is no effect, 100 is complete control", "description": "as §1, §2"}, "[23]": {"tested_on": "ryegrass, Italian (Italian ryegrass, Lolium multiflorum)", "assay": "Test C preemergence, Italian ryegrass", "conditions": "0 is no effect, 100 is complete control", "description": "as §1, §2"}, "[24]": {"tested_on": "corn (Zea mays)", "assay": "Test C postemergence, corn", "conditions": "visual injury, 0 to 100 scale (0 no effect, 100 complete control)", "description": "as §1, §2"}, "[25]": {"tested_on": "blackgrass (Alopecurus myosuroides)", "assay": "Test C postemergence, blackgrass", "conditions": "visual injury, 0 to 100 scale (0 no effect, 100 complete control)", "description": "as §1, §2"}, "[26]": {"tested_on": "rice (Oryza sativa)", "assay": "Test D flooded paddy test, rice", "set-up": "key: 0 = no effect, 100 = complete control", "conditions": "250 g ai/ha, Flood; applied to paddy water at 2-leaf stage; visual rating after 13 days; scale 0 (no effect) to 100 (complete control)", "procedure": "as §3"}}, "data": [{"smiles": "Cc1cc(C)c(N(COC(=O)C(C)(C)C)S(=O)(=O)C(F)(F)F)cc1N1CCC(OCC2CC(F)(F)C2)C1=O", "note": "(centres unmarked) [Compound 55]", "values": [{"measurement": "Oat, Wild plant response rating", "setting": "[1]; 31 g ai/ha Postemergence", "value": 20}, {"measurement": "Oat, Wild plant response rating", "setting": "[1]; 125 g ai/ha Postemergence", "value": 30}, {"measurement": "Plant response rating (0 to 100 scale), Pigweed, Palmer", "setting": "[2]; 31 g ai/ha Preemergence", "value": 0}, {"measurement": "Plant response rating (0 to 100 scale), Pigweed, Palmer", "setting": "[2]; 125 g ai/ha Preemergence", "value": 30}, {"measurement": "Goosegrass plant response rating", "setting": "[3]; 31 g ai/ha Postemergence", "value": 40}, {"measurement": "Goosegrass plant response rating", "setting": "[3]; 125 g ai/ha Postemergence", "value": 90}, {"measurement": "Plant response rating (0 to 100 scale), Corn", "setting": "[4]; 31 g ai/ha Preemergence", "value": 0}, {"measurement": "Plant response rating (0 to 100 scale), Corn", "setting": "[4]; 125 g ai/ha Preemergence", "value": 10}, {"measurement": "Wheat plant response rating", "setting": "[5]; 31 g ai/ha Postemergence", "value": 20}, {"measurement": "Wheat plant response rating", "setting": "[5]; 125 g ai/ha Postemergence", "value": 70}, {"measurement": "Kochia plant response rating", "setting": "[6]; 31 g ai/ha Postemergence", "value": 0}, {"measurement": "Kochia plant response rating", "setting": "[6]; 125 g ai/ha Postemergence", "value": 20}, {"measurement": "Foxtail, Giant plant response rating", "setting": "[7]; 31 g ai/ha Postemergence", "value": 30}, {"measurement": "Foxtail, Giant plant response rating", "setting": "[7]; 125 g ai/ha Postemergence", "value": 70}, {"measurement": "Horseweed plant response rating", "setting": "[8]; 31 g ai/ha Postemergence", "value": 80}, {"measurement": "Horseweed plant response rating", "setting": "[8]; 125 g ai/ha Postemergence", "value": 80}, {"measurement": "Plant response rating (0 to 100 scale), Soybean", "setting": "[9]; 31 g ai/ha Preemergence", "value": 0}, {"measurement": "Plant response rating (0 to 100 scale), Soybean", "setting": "[9]; 125 g ai/ha Preemergence", "value": 0}, {"measurement": "Plant response rating, Sedge, Umbrella", "setting": "[10]", "value": 95}, {"measurement": "Plant response rating, Ducksalad", "setting": "[11]", "value": 90}, {"measurement": "Ryegrass, Italian plant response rating", "setting": "[12]; 31 g ai/ha Postemergence", "value": 0}, {"measurement": "Ryegrass, Italian plant response rating", "setting": "[12]; 125 g ai/ha Postemergence", "value": 60}, {"measurement": "Plant response rating, Barnyardgrass", "setting": "[13]", "value": 50}, {"measurement": "Pigweed, Palmer plant response rating", "setting": "[14]; 31 g ai/ha Postemergence", "value": 0}, {"measurement": "Pigweed, Palmer plant response rating", "setting": "[14]; 125 g ai/ha Postemergence", "value": 40}, {"measurement": "Plant response rating (0 to 100 scale), Goosegrass", "setting": "[15]; 31 g ai/ha Preemergence", "value": 10}, {"measurement": "Plant response rating (0 to 100 scale), Goosegrass", "setting": "[15]; 125 g ai/ha Preemergence", "value": 100}, {"measurement": "Ragweed plant response rating", "setting": "[16]; 31 g ai/ha Postemergence", "value": 50}, {"measurement": "Ragweed plant response rating", "setting": "[16]; 125 g ai/ha Postemergence", "value": 80}, {"measurement": "Plant response rating (0 to 100 scale), Oat, Wild", "setting": "[17]; 31 g ai/ha Preemergence", "value": 0}, {"measurement": "Plant response rating (0 to 100 scale), Oat, Wild", "setting": "[17]; 125 g ai/ha Preemergence", "value": 20}, {"measurement": "Plant response rating (0 to 100 scale), Wheat", "setting": "[18]; 31 g ai/ha Preemergence", "value": 10}, {"measurement": "Plant response rating (0 to 100 scale), Wheat", "setting": "[18]; 125 g ai/ha Preemergence", "value": 40}, {"measurement": "Soybean plant response rating", "setting": "[19]; 31 g ai/ha Postemergence", "value": 50}, {"measurement": "Soybean plant response rating", "setting": "[19]; 125 g ai/ha Postemergence", "value": 70}, {"measurement": "Plant response rating (0 to 100 scale), Foxtail, Giant", "setting": "[20]; 31 g ai/ha Preemergence", "value": 0}, {"measurement": "Plant response rating (0 to 100 scale), Foxtail, Giant", "setting": "[20]; 125 g ai/ha Preemergence", "value": 10}, {"measurement": "Plant response rating (0 to 100 scale), Ragweed", "setting": "[21]", "value": 40}, {"measurement": "Plant response rating (0 to 100 scale), Kochia", "setting": "[22]; 31 g ai/ha Preemergence", "value": 0}, {"measurement": "Plant response rating (0 to 100 scale), Kochia", "setting": "[22]; 125 g ai/ha Preemergence", "value": 10}, {"measurement": "Plant response rating (0 to 100 scale), Ryegrass, Italian", "setting": "[23]; 31 g ai/ha Preemergence", "value": 20}, {"measurement": "Plant response rating (0 to 100 scale), Ryegrass, Italian", "setting": "[23]; 125 g ai/ha Preemergence", "value": 60}, {"measurement": "Corn plant response rating", "setting": "[24]; 31 g ai/ha Postemergence", "value": 0}, {"measurement": "Corn plant response rating", "setting": "[24]; 125 g ai/ha Postemergence", "value": 70}, {"measurement": "Blackgrass plant response rating", "setting": "[25]; 31 g ai/ha Postemergence", "value": 0}, {"measurement": "Blackgrass plant response rating", "setting": "[25]; 125 g ai/ha Postemergence", "value": 40}, {"measurement": "Plant response rating, Rice", "setting": "[26]", "value": 15}]}]}
